In patent US11464745B2, “Solid pharmaceutical dosage formulations and processes” (UCL Business PLC, priority 2016, dated 2022):

What was measured:
[1] = Determination of drug loading by HPLC (drug degradation during SLS printing); format: physicochemical; details: SLS 3D printing, 445 nm 2.3 W laser
Description: Tablets weighing approx. 300 mg, prepared as in example 1, were placed in a volumetric flask with deionized water (1 L) under magnetic stirring until complete dissolution.
Samples of the solutions were then filtered through 0.45 μm filters (Millipore Ltd, Ireland) and the concentration of drug determined with high performance liquid chromatograph (HPLC). We used a Hewlett Packard 1050 Series HPLC system, Agilent Technologies, UK. The validated high performance liquid chromatographic assay entailed injecting 20 μL samples for analysis using a mobile phase, consisting of gradient system of (A) water adjusted to pH 2 with orthophosphoric acid and (B) acetonitrile, through a Luna 5 μm C18 column, 150×4.6 mm (Phenomenex, UK) maintained at 40° C. The mobile phase was pumped at a flow rate of 1 mL/min under the following gradient program: 0-15 min, 5-20% B; 15-16 min, 20-5% B.
HPLC drug loading studies have been performed. […] (Goyanes et al. 3D printing of modified-release aminosalicylate (4-ASA and 5-ASA) tablets. Eur. J. Pharm. Biopharm. 89, 157-162).

[2] = FDM printing; cited from earlier work

drug degradation during the printing process (HPLC) [1]: No degradation
Structure (SMILES): Nc1ccc(C(=O)O)c(O)c1 [4-ASA]
drug degradation while printing [2]: degrade
